Results reported in patent EP0317873B1, “Radioiodinated benzamides and method of their use as radioimaging agents” (THE VANDERBILT UNIVERSITY, priority 1987, dated 1989).

Columns and labels:
D-2 receptor [1] = molecular target: T1, D-2 receptor (Rattus norvegicus, UniProt P61169); test: Displacement of [125I](S)-II binding to rat striatal membranes (receptor binding assay); settings: radioligand concentration 0.46 nM, nonspecific binding in the presence of 10 µM of (S)-II, 30 min at 37°C, read-out: [¹²⁵I]-(S) II binding IC₅₀
T1 construct: 90 µL of the striatal membrane preparation; from tissue; host or cells: rat striatum (membrane preparation)
Experimental: Lett. 64:163-168 (1986). […] Male Sprague-Dawley rats (150-200 g) were killed by decapitation and their brains quickly removed and dissected on ice. Striata were dissected and homogenized in 40 vol of ice-cold Tris-HCl (50 mM) containing 123 mM NaCl, 5 mM KCl, 2 mM CaCl₂ and 1 mM MgCl₂ (pH 7.4) using a Brinkman Polytron. The suspension was centrifuged at 30,000 x g for 10 min at 4°C, and the pellet was resuspended in 40 vol of fresh buffer with polytron. The suspension was incubated at 37°C for 10 min, centrifuged again at 30,000 x g for 10 min (4°C) and the final pellet was resuspended with the polytron in 200 vol of ice cold buffer. […] Nonspecific binding was determined in the presence of 10 µM[…]. Tubes were incubated for 30 min at 37°C, poured over Whatman GF/B filters under vacuum, and the filters were rinsed three times with 4 mL of ice cold buffer. Radioactivity remaining on the filters was measured by liquid scintillation on a Quantum 9 Multichannel analyzer operating at 35% efficiency.

D-2 receptor [2] = molecular target: T1, D-2 receptor; test: Displacement of [3H]sulpiride binding to rat striatal membranes (receptor binding assay); settings: read-out: [³H]sulpiride binding IC₅₀, radioligand concentration 2.9 nM, nonspecific binding in the presence of 10 µM sulpiride, 30 min at 37°C
Experimental: Lett. 64:163-168 (1986). […] Male Sprague-Dawley rats (150-200 g) were killed by decapitation and their brains quickly removed and dissected on ice. Striata were dissected and homogenized in 40 vol of ice-cold Tris-HCl (50 mM) containing 123 mM NaCl, 5 mM KCl, 2 mM CaCl₂ and 1 mM MgCl₂ (pH 7.4) using a Brinkman Polytron. The suspension was centrifuged at 30,000 x g for 10 min at 4°C, and the pellet was resuspended in 40 vol of fresh buffer with polytron. The suspension was incubated at 37°C for 10 min, centrifuged again at 30,000 x g for 10 min (4°C) and the final pellet was resuspended with the polytron in 200 vol of ice cold buffer. Assay tubes contained […] or radioligand at 2.9 nM concentration and 90 µL of the striatal membrane preparation. Nonspecific binding was determined in the presence of 10 µM(-)[¹²⁵I](S)-II. Tubes were incubated for 30 min at 37°C, poured over Whatman GF/B filters under vacuum, and the filters were rinsed three times with 4 mL of ice cold buffer. Radioactivity remaining on the filters was measured by liquid scintillation on a Quantum 9 Multichannel analyzer operating at 35% efficiency.

D-2 receptor [3] = molecular target: T1, D-2 receptor; test: Saturation binding of [125I](S)-II to rat striatal membranes (Scatchard analysis, time course)
Experimental: Male Sprague-Dawley rats (150-200 g) were killed by decapitation and their brains quickly removed and dissected on ice. Striata were dissected and homogenized in 40 vol of ice-cold Tris-HCl (50 mM) containing 123 mM NaCl, 5 mM KCl, 2 mM CaCl₂ and 1 mM MgCl₂ (pH 7.4) using a Brinkman Polytron. The suspension was centrifuged at 30,000 x g for 10 min at 4°C, and the pellet was resuspended in 40 vol of fresh buffer with polytron. The suspension was incubated at 37°C for 10 min, centrifuged again at 30,000 x g for 10 min (4°C) and the final pellet was resuspended with the polytron in 200 vol of ice cold buffer. Assay tubes contained […] or radioligand at 2.9 nM concentration and 90 µL of the striatal membrane preparation. Nonspecific binding was determined in the presence of 10 µM(-)[¹²⁵I](S)-II. Tubes were incubated for 30 min at 37°C, poured over Whatman GF/B filters under vacuum, and the filters were rinsed three times with 4 mL of ice cold buffer. Radioactivity remaining on the filters was measured by liquid scintillation on a Quantum 9 Multichannel analyzer operating at 35% efficiency. […]

[4] = at 37°C, rat striatal membranes

T1 sequence (P61169 whole entry): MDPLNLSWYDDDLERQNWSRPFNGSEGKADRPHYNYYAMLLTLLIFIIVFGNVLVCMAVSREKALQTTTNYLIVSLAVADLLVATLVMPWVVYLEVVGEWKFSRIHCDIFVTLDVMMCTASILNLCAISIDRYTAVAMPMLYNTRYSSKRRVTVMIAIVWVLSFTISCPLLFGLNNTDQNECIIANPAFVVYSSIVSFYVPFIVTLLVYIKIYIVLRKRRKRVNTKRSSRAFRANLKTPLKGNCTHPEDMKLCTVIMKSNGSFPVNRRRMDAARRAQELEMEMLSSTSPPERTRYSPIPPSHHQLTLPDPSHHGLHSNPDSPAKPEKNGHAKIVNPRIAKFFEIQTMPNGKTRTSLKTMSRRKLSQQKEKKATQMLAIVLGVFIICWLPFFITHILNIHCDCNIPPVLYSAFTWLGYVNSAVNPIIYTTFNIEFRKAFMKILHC

Compound	IC50 (D-2 receptor [1])	IC50 (D-2 receptor [2])	maximal number of binding sites (D-2 receptor [3]; Scatchard analysis of the saturation isotherm, rat striatal membranes)	Kd (D-2 receptor [3]; Scatchard analysis of the saturation isotherm, single set of binding sites, rat striatal membranes)	time binding remained stable (D-2 receptor [3]; [4])	time for binding to reach equilibrium (D-2 receptor [3]; [4])	character of binding to rat striated membranes (D-2 receptor [3]; conditions of the receptor binding assay)
CCN1CCC[C@@H]1CNC(=O)c1cc(I)ccc1OC [(R)-II]	169 nM	146 nM	–	–	–	–	–
CCN1CCC[C@H]1CNC(=O)c1cc(I)ccc1OC [(S)-II, (S)-N-[(1-ethyl-2-pyrrolidinyl)methyl]-5-iodo-2-methoxybenzamide]	5 nM	–	–	–	–	–	–
CCN1CCC[C@H]1CNC(=O)c1cc([125I])ccc1OC [Example 1]	–	–	169 fmol/mg protein	1 nM	at least 60 min	≤ 20 min	saturable, reversible and stereospecific
